The subject of series [1] is N. caninum tachyzoites. The experiment in a line: N. caninum-β-gal tachyzoite proliferation in HFF, 3 days. In kind it is cell-based. To be noted: Neospora caninum, read-out: EC50 N. caninum. The protocol:
Transgenic N. caninum tachyzoites expressing beta-galactosidase under a constitutive promoter (N. caninum-β-gal) were grown in Vero cells and were separated from host cell components as previously described. Human foreskin fibroblasts (HFF) at 5×10^3 cells per well in phenol-red free culture medium were incubated at 37°C with 5% CO2 and were grown to confluence in a 96-well plate. […] Cultures were infected with N. caninum-β-gal tachyzoites (1×10^3 per well). After three days at 37°C/5% CO2, plates were centrifuged at 500 g, medium was removed, and cell cultures were lysed in PBS containing 0.05% Triton-X-100. After addition of 10 μL of 5 mM chlorophenol red-b-D-galactopyranoside (CPRG; Roche Diagnostics, Rotkreuz, Switzerland) dissolved in PBS, the absorption shift was measured at 570 nm wavelength at various time points on a VersaMax multiplate reader (Bucher Biotec, Basel, Switzerland). The activity, measured as the release of chlorophenol red over time, was proportional to the number of life parasites down to 50 per well as determined in pilot assays. EC50 values were calculated after the logit-log-transformation of relative growth and subsequent regression analysis by the corresponding software tool contained in the Excel software package (Microsoft, Seattle, WA).

Series [2] relates to T. gondii. To be noted: cited from earlier work.
The target in series [3] is recombinant NcCDPK1 (Neospora caninum, UniProt F0V9W9). The experiment in a line: biochemical. The procedure: Protein kinase activity of recombinant NcCDPK1 and inhibition of its kinase phosphorylation properties by BKIs was measured in a non-radioactive assay using Kinase-Glo luciferase reagent (Promega, Madison, WI). This luminescence based assay measures kinase activity in the presence or absence of inhibitors by reporting changes in initial ATP concentration after NcCDPK1 phosphorylation of biotinylated Syntide-2 peptide substrate (Biotin-C6-[…]) (BioSyntide-2) (American Peptide Company, Inc. Sunnyvale, CA), [40]. […] The reaction was initiated by the addition of 10 μM ATP and incubated for 90 minutes at 30°C. Changes in initial ATP concentration was evaluated as a luminescence readout using a MicroBeta2 multi-label plate reader (Perkin Elmer, Waltham, MA).
Chain of recombinant NcCDPK1 (F0V9W9 entry or part of it): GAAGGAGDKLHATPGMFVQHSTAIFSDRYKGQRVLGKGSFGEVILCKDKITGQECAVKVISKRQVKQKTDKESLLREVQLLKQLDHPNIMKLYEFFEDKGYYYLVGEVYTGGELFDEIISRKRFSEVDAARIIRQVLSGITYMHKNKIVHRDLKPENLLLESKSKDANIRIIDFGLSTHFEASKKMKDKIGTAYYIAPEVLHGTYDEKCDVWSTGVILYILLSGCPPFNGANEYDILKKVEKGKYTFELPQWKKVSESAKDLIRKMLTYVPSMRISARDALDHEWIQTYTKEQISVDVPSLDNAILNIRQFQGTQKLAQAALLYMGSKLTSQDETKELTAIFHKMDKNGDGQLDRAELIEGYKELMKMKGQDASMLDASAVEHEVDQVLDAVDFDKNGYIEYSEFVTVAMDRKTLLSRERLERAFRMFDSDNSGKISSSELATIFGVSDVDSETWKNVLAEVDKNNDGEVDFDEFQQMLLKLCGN

The conditions of series [4]: cited from earlier work.
Series [5] has as its system malaria transmission. Details: method as in PMID 24123773. The note with it: cited from earlier work.
In series [6] the test system is N. caninum tachyzoites in HFF. Briefly: Host cell invasion assay, BKI treatment pre- and post-infection (β-galactosidase). In kind it is cell-based, Neospora caninum. The protocol: Control wells with equal volume of DMSO were also included per reaction plate. Two hours after initiating the experiment, the cells were washed. Selected untreated assay plates were treated with 1294 for 60 minutes after the initial wash with medium. All the assay plates were incubated for one hour before a final wash and reading the beta-galactosidase activity.

Series [7] relates to Cryptosporidium parvum. Details: method as in PMID 23878324. The note with it: in vitro and in vivo; cited from earlier work.
The subject of series [8] is N. caninum. Briefly: N. caninum infected Balb/c mice, cerebral parasite load by real time PCR. In kind it is in vivo. For orientation: Real-time PCR tracks product formation cycle by cycle.
[9] abbreviates: 72 h, concentration that inhibits cell growth by 50%, tachyzoites in HFF, 3 days.
[10] abbreviates: concentration that inhibits protein kinase activity by 50%, 10 μM ATP, 40 μM BioSyntide-2, 3.3 nM enzyme, read-out: IC50 NcCDPK1.

The structures appear in SMILES notation. Read-outs that look alike come from different tables or passages of the source.

These results are taken from article PMC3969379, “Neospora caninum Calcium-Dependent Protein Kinase 1 Is an Effective Drug Target for Neosporosis Therapy” (PLoS ONE, 2014).

Usually EC50 stands for the concentration at which the effect is half-maximal. The IC50 is the concentration that inhibits the measured activity by half.

As for `CC(C)(C)n1nc(-c2ccc3ccccc3c2)c2c(N)ncnc21` [11b], the results for the EC50 in series [1] (setting [9]) and in series [2] were 0.14 µM and 0.347 µM, respectively. In addition, in series [3] (setting [10]), the IC50 is 0.0017 µM.

For `CCOc1ccc2cc(-c3nn(C4CCN(C)CC4)c4ncnc(N)c34)ccc2c1` [15h], the values for the EC50 in series [1] (setting [9]) and in series [2] were 0.055 µM and 0.05 µM, respectively. For the same compound, in series [3] (setting [10]), the IC50 worked out at 0.0014 µM.

Take `CCOc1ccc2cc(-c3nn(C4CCN(CC)CC4)c4ncnc(N)c34)ccc2c1` [15i]: the EC50 was 0.099 µM in series [1] (setting [9]) and 0.09 µM in series [2]. In series [3] (setting [10]), the IC50 is 0.0023 µM.

With `CCOc1ccc2cc(-c3nn(CC4CCNCC4)c4ncnc(N)c34)ccc2c1` [15n], the EC50 in series [1] (setting [9]) is 0.05 µM; in series [2], 0.052 µM.

As for `CCOc1ccc2cc(-c3nn(CC4CCNCC4)c4ncnc(N)c34)ccc2n1` [16n], the EC50 in series [1] (setting [9]) came to 0.049 µM. Further, the IC50 in series [3] (setting [10]) came to 0.0017 µM.

Consider `CCOc1ccc2cc(-c3nn(CC4CCN(C)CC4)c4ncnc(N)c34)ccc2c1` [compound 1294], for which, in series [4], the pharmacokinetic data entry is given as “favorable absorption with low clearance”. Also, the “toxicity in mammalian cells and rodents” value in series [4] (in vivo) is listed as “low toxicity”. The EC50 in series [1] (HFF-3, 72 h) is 0.032 µM; in series [2] it was 0.137 µM. For the same compound, the malaria transmission blocking entry in series [5] is “excellent malaria transmission blocking properties”. For the same compound, the “beta-galactosidase activity (host cell invasion)” value in series [6] (5 μM added after the infection phase of 2 hours, p>0.2) is on record as “no difference”; in series [6] (5 μM added at 60, 90 and 115 minutes after initiation of infection), “no significant difference”; in series [6] (5 μM added at initiation of HFF infection, 2 hours, vs 1266 or DMSO, p<0.001), “significant decrease”. Moreover, the “activity against Cryptosporidium parvum cell growth” value in series [7] was “profound in vitro and in vivo activity”. The IC50 in series [3] came out at 0.0026 µM. The “cerebral parasite load vs placebo group” value in series [8] (group B: 50 mg/kg oral daily from day 3 post infection for 5 days, P = 0.0139) was “tendency towards reduced parasite load”; in series [8] (group C: 50 mg/kg oral daily from day 3 post infection for 10 days, P = 0.0047) it was “clearly the most effective”. Further, the “reduction of cerebral parasite burden compared to untreated control” value in series [8] (oral 50 mg/kg for 5 days, established murine neosporosis) is recorded as 10 fold.

Consider `CCOc1ccc2cc(-c3nn(CC4CCOCC4)c4ncnc(N)c34)ccc2n1` [compound 1412], for which the EC50 in series [1] (setting [9]) turned out to be 0.119 µM. Further, the IC50 in series [3] (setting [10]) worked out at 0.002 µM.
